The target in experiment [1] is T1, human GPR40 (Homo sapiens, UniProt O14842).
T1 construct: expressed in transfected cells
Put plainly: GPR40 calcium flux assay, human GPR40. The settings on record: transfected HEK293 cells stably expressing human GPR40; multiple values = repeated testing; read-out: hGPR40 Ca^2+ Assay EC50. The format is cell-based. The method, then:
(§1) Compounds were tested in a calcium flux assay using transfected HEK293 cells stably expressing either human GPR40 or rat GPR40. Human GPR40 expressing cells were cultured in DMEM-High Glucose media supplemented with 10% fetal bovine serum, 1×L-Glutamine, 1×Penicillin/Streptomycin and 500 μg/mL G418. Rat GPR40 expressing cells were cultured in DMEM-High Glucose media supplemented with 10% fetal bovine serum and 1 μg/mL puromycin. Cells were plated into poly-D-lysine coated 384-well plates and cultured overnight in a 37° C. humidified tissue culture incubator under 5% CO2/[…] atmosphere. On the day of the experiment, the culture media was replaced with assay buffer (HBSS, 20 mM HEPES, 0.1% BSA) and the cells incubated at 37° C. for 1 h. Calcium-sensitive fluorescent dye (Fluo 8 No-Wash Calcium Dye, ABD Bioquest) was then added and the cells incubated for another 30 min at 37° C. followed by 15 min at room temperature while protected from the light. The cell plate and a plate of diluted compounds of Formula (I) were loaded into a fluorescent plate reader that added compounds onto the cells while measuring the fluorescence intensity of each well. The plate reader recorded fluorescence intensity at 1 second intervals for 8 min and provided the data for analysis in an Excel format. EC50 values were calculated using Prism (GraphPad) software.
Background: Calcium flux is commonly read through the fluorescence of an indicator in the cells.

For experiment [2], the target named is T2, rat GPR40 (Rattus norvegicus, UniProt Q8K3T4).
T2 construct: expressed in transfected cells
T2 sequence (Q8K3T4 whole entry): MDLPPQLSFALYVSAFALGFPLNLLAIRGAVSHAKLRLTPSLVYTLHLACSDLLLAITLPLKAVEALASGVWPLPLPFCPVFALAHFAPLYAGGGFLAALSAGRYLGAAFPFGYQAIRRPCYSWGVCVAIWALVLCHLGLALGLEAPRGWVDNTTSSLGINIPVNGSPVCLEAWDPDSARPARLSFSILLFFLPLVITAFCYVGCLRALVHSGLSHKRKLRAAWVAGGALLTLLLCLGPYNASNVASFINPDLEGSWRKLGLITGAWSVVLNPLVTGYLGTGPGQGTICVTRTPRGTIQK
Put plainly: GPR40 calcium flux assay, rat GPR40. Type of experiment: cell-based. The settings on record: transfected HEK293 cells stably expressing rat GPR40; multiple values = repeated testing; read-out: rGPR40 Ca^2+ Assay EC50. The method, then:
as §1

For 20 compounds, EC50 results are on record in US9920040B2, “GPR40 agonists for the treatment of type II diabetes” (Janssen Pharmaceutica NV, priority 2015, dated 2018).

The structures appear in SMILES notation. Values joined by “and” are separate entries in the source; they are usually repeats but may differ in a detail not shown here. Equal values may be shown once.

T1 sequence (O14842 whole entry): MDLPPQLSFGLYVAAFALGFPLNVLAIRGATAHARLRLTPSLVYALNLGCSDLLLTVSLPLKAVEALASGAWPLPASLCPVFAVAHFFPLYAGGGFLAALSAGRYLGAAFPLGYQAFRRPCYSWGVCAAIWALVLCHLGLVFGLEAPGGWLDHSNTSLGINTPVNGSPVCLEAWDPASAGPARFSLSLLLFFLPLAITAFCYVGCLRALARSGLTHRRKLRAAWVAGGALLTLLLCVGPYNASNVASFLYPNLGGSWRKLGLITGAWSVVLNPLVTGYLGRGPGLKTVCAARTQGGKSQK

Take `COc1cc(-c2onc(COc3cccc([C@@H](CC(=O)O)C4CC4)c3)c2OC2CC(C)(C)CC(C)(C)C2)c(F)cn1` [Cpd 2, (3S)-3-cyclopropyl-3-[3-[[5-(5-fluoro-2-methoxy-4-pyridyl)-4-(3,3,5,5-tetramethylcyclohexoxy)isoxazol-3-yl]methoxy]phenyl]propanoic acid]: the EC50 in experiment [1] was 0.005 µM; in experiment [2], 0.009 µM.
For `COc1cc(-c2onc(COc3cccc([C@@H](CC(=O)O)C4CC4)c3)c2OCC2CC(C)(C)C2)c(F)cn1` [Cpd 8, (3S)-3-cyclopropyl-3-[3-[[4-[(3,3-dimethylcyclobutyl)methoxy]-5-(5-fluoro-2-methoxy-4-pyridyl)isoxazol-3-yl]methoxy]phenyl]propanoic acid], the EC50 is 0.113 µM and 0.103 µM and 0.027 µM in experiment [1]; 0.044 µM and 0.144 µM and 0.143 µM in experiment [2].
As for `COc1ccc(F)c(-c2onc(CCc3cccc(C(CC(=O)O)C4CC4)c3)c2C2CC2)c1` (stereo not shown) [Cpd 7, 3-cyclopropyl-3-[3-[2-[4-cyclopropyl-5-(2-fluoro-5-methoxy-phenyl)isoxazol-3-yl]ethyl]phenyl]propanoic acid], the EC50 in experiment [1] worked out at 0.024 µM; in experiment [2], 0.069 µM.
With `COc1cc(-c2scc(COc3cccc([C@@H](CC(=O)O)C4CC4)c3)c2C2=CCCC2(C)C)c2ccsc2c1` [Cpd 10, (3S)-3-cyclopropyl-3-[3-[[4-(5,5-dimethylcyclopenten-1-yl)-5-(6-methoxybenzothiophen-4-yl)-3-thienyl]methoxy]phenyl]propanoic acid], the half-maximal effective concentration (EC50) is 0.053 µM and 0.035 µM and 0.034 µM in experiment [1]; 0.091 µM and 0.089 µM in experiment [2].
`COc1ccc(F)c(-c2onc(COc3cc(C(CC(=O)O)C4CC4)c(Cl)cn3)c2C2=CCCC2(C)C)c1` (stereo not shown) [Cpd 9, 3-[5-chloro-2-[[4-(5,5-dimethylcyclopenten-1-yl)-5-(2-fluoro-5-methoxy-phenyl)isoxazol-3-yl]methoxy]-4-pyridyl]-3-cyclopropyl-propanoic acid]: the EC50 in experiment [1] came out at 0.053 µM; in experiment [2], 0.138 µM.
As for `COc1ccc(F)c(-c2onc(COc3cccc([C@@H](CC(=O)O)C4CC4)c3)c2OC2CC(C)(C)C(C)(C)C2)c1` [Cpd 1, (3S)-3-cyclopropyl-3-[3-[[5-(2-fluoro-5-methoxy-phenyl)-4-(3,3,4,4-tetramethylcyclopentoxy)isoxazol-3-yl]methoxy]phenyl]propanoic acid], the EC50 in experiment [1] was determined as 0.003 µM; in experiment [2], 0.006 µM.
Turning to `COc1ccc(F)c(-c2onc(COc3cccc([C@@H](CC(=O)O)C4CC4)c3)c2CC(C)C)c1` [Cpd 35, (3S)-3-cyclopropyl-3-[3-[[5-(2-fluoro-5-methoxy-phenyl)-4-isobutyl-isoxazol-3-yl]methoxy]phenyl]propanoic acid], in experiment [1], the EC50 is 0.008 µM and 0.006 µM.
Consider `CC1(C)CCC=C1c1c(COc2cccc([C@@H](CC(=O)O)C3CC3)c2)csc1-c1cccc2occc12` [Cpd 25, (3S)-3-[3-[[5-(benzofuran-4-yl)-4-(5,5-dimethylcyclopenten-1-yl)-3-thienyl]methoxy]phenyl]-3-cyclopropyl-propanoic acid], for which the EC50 in experiment [1] was 0.101 µM and 0.068 µM.
As to `COc1ccc(F)c(-c2onc(COc3cccc([C@@H](CC(=O)O)C4CC4)c3)c2-c2ccc(C(C)(C)C)s2)c1` [Cpd 45, (3S)-3-[3-[[4-(5-tert-butyl-2-thienyl)-5-(2-fluoro-5-methoxy-phenyl)isoxazol-3-yl]methoxy]phenyl]-3-cyclopropyl-propanoic acid], the EC50 in experiment [1] is 0.023 µM and 0.021 µM.
Regarding `COc1ccc(F)c(-c2scc(COc3cccc([C@@H](CC(=O)O)C4CC4)c3)c2C(C)C(F)(F)F)c1` (stereo partly drawn) [Cpd 19, (3S)-3-cyclopropyl-3-[3-[[5-(2-fluoro-5-methoxy-phenyl)-4-(2,2,2-trifluoro-1-methyl-ethyl)-3-thienyl]methoxy]phenyl]propanoic acid], in experiment [1], the EC50 was 0.253 µM and 0.128 µM.
For `CC1(C)CCC=C1c1c(COc2cccc([C@@H](CC(=O)O)C3CC3)c2)csc1-c1ccccc1F` [Cpd 21, (3S)-3-cyclopropyl-3-[3-[[4-(5,5-dimethylcyclopenten-1-yl)-5-(2-fluorophenyl)-3-thienyl]methoxy]phenyl]propanoic acid], in experiment [1], the EC50 was 0.11 µM and 0.066 µM.
On to `COc1ccc(F)c(-c2onc(COc3cccc([C@@H](CC(=O)O)C4CC4)c3)c2OCC2CC(C)(C)C2)c1` [Cpd 5, (3S)-3-cyclopropyl-3-[3-[[4-[(3,3-dimethylcyclobutyl)methoxy]-5-(2-fluoro-5-methoxy-phenyl)isoxazol-3-yl]methoxy]phenyl]propanoic acid], for which the concentration giving a half-maximal response (EC50) is 0.037 µM and 0.035 µM and 0.006 µM in experiment [1]; 0.069 µM and 0.046 µM and 0.056 µM in experiment [2].
As for `COc1ccc(F)c(-c2onc(COc3cccc([C@@H](CC(=O)O)C4CC4)c3)c2OCC2CC2)c1` [Cpd 41, (3S)-3-cyclopropyl-3-[3-[[4-(cyclopropylmethoxy)-5-(2-fluoro-5-methoxy-phenyl)isoxazol-3-yl]methoxy]phenyl]propanoic acid], the EC50 in experiment [1] is 0.014 µM and 0.012 µM.
`COc1ccc(F)c(-c2scc(COc3cccc([C@@H](CC(=O)O)C4CC4)c3)c2C2CC2)c1` [Cpd 14, (3S)-3-cyclopropyl-3-[3-[[4-cyclopropyl-5-(2-fluoro-5-methoxy-phenyl)-3-thienyl]methoxy]phenyl]propanoic acid]: the concentration for a half-maximal effect (EC50) in experiment [1] is 0.108 µM and 0.089 µM.
As for `COc1cc(-c2onc(COc3cccc([C@@H](CC(=O)O)C4CC4)c3)c2OC2CC(C)(C)C(C)(C)C2)c(F)cn1` [Cpd 4, (3S)-3-cyclopropyl-3-[3-[[5-(5-fluoro-2-methoxy-4-pyridyl)-4-(3,3,4,4-tetramethylcyclopentoxy)isoxazol-3-yl]methoxy]phenyl]propanoic acid], the EC50 turned out to be 0.005 µM in experiment [1] and 0.01 µM in experiment [2].
For the compound `CCOc1c(COc2cccc([C@@H](CC(=O)O)C3CC3)c2)noc1-c1cc(OC)ccc1F` [Cpd 50, (3S)-3-cyclopropyl-3-[3-[[4-ethoxy-5-(2-fluoro-5-methoxy-phenyl)isoxazol-3-yl]methoxy]phenyl]propanoic acid], in experiment [1], the concentration giving a half-maximal response (EC50) was 0.11 µM and 0.081 µM.
Consider `CCOc1c(COc2cccc([C@@H](CC(=O)O)C3CC3)c2)noc1-c1cc(OC)ncc1F` [Cpd 51, (3S)-3-cyclopropyl-3-[3-[[4-ethoxy-5-(5-fluoro-2-methoxy-4-pyridyl)isoxazol-3-yl]methoxy]phenyl]propanoic acid], for which the EC50 in experiment [1] is 0.18 µM and 0.14 µM.
Same read-out and setting: the value for `COc1ccc(F)c(-c2onc(COc3cccc([C@@H](CC(=O)O)C4CC4)c3)c2OC2CC(C)(C)CC(C)(C)C2)c1` [Cpd 3, (3S)-3-cyclopropyl-3-[3-[[5-(2-fluoro-5-methoxy-phenyl)-4-(3,3,5,5-tetramethylcyclohexoxy)isoxazol-3-yl]methoxy]phenyl]propanoic acid] was 0.005 µM; that for `COc1ccc(F)c(-c2onc(COc3cccc([C@@H](CC(=O)O)C4CC4)c3)c2OCC2C(C)(C)C2(C)C)c1` [Cpd 11, (3S)-3-cyclopropyl-3-[3-[[5-(2-fluoro-5-methoxy-phenyl)-4-[(2,2,3,3-tetramethylcyclopropyl)methoxy]isoxazol-3-yl]methoxy]phenyl]propanoic acid] was 0.058 µM; that for `COc1ccc(F)c(-c2onc(COc3cccc([C@@H](CC(=O)O)C4CC4)c3)c2OC2CCC2)c1` [Cpd 43, (3S)-3-[3-[[4-(cyclobutoxy)-5-(2-fluoro-5-methoxy-phenyl)isoxazol-3-yl]methoxy]phenyl]-3-cyclopropyl-propanoic acid] was 0.011 µM and 0.009 µM.

What is called EC50 is the concentration that produces a half-maximal response.
